# Measured values reported in publication PMC8538957 (Pharmaceutics, 2021).
# Biological target: T1, UGT2B7 (UDP-glycosyltransferase) (Homo sapiens, UniProt P16662)
# T1 construct: human liver microsomes encapsulated in hydrogel (HLM-Gel)
# T1 sequence (P16662 24-529): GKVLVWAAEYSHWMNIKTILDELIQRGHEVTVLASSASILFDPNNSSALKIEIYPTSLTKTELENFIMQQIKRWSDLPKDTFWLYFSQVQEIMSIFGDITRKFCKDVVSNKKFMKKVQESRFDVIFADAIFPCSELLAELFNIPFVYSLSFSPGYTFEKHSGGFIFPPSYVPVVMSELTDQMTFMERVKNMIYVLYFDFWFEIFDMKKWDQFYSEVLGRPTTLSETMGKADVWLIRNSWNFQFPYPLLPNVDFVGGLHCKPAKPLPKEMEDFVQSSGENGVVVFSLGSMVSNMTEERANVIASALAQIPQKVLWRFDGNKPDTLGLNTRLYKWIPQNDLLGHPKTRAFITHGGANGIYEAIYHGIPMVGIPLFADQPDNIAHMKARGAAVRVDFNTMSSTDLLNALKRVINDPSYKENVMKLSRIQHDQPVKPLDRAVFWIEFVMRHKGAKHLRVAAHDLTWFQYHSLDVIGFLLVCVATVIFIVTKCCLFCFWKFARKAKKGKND
# Assay: inhibition of AZT glucuronidation in human liver microsomes in the Bio-PK dynamic system, HPLC, Ki fitted by MATLAB model
# Format: biochemical
smiles,measurement,value
"OC(Cn1cncn1)(Cn1cncn1)c1ccc(F)cc1F [FCZ, fluconazole]",Ki,14 µM
